From PubChem BioAssay (NCI)
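A five-concentration, 48-hour dose response in 96-well plates underlies each endpoint, interpolated linearly between surrounding concentrations. The concentration for full growth arrest is given as TGI.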

Assays:
Assay in all cases: NCI-60 cell line screen, 48 h
COLO 205 colon = tested on: COLO 205 colon
EKVX NSCLC = tested on: EKVX NSCLC
IGROV1 ovarian = tested on: IGROV1 ovarian
LOX IMVI melanoma = tested on: LOX IMVI melanoma
M14 melanoma = tested on: M14 melanoma
MOLT-4 leukemia = tested on: MOLT-4 leukemia
NCI-H226 lung = tested on: NCI-H226 lung
NCI-H23 lung = tested on: NCI-H23 lung
NCI-H460 lung = tested on: NCI-H460 lung
OVCAR-3 ovarian = tested on: OVCAR-3 ovarian
OVCAR-4 ovarian = tested on: OVCAR-4 ovarian
RPMI-8226 leukemia = tested on: RPMI-8226 leukemia
RXF 393 renal = tested on: RXF 393 renal
SK-MEL-28 melanoma = tested on: SK-MEL-28 melanoma
SK-MEL-5 melanoma = tested on: SK-MEL-5 melanoma
SR leukemia = tested on: SR leukemia
T-47D breast = tested on: T-47D breast
UACC-257 melanoma = tested on: UACC-257 melanoma
UACC-62 melanoma = tested on: UACC-62 melanoma

Compound	TGI (COLO 205 colon) [µM]	TGI (EKVX NSCLC) [µM]	TGI (IGROV1 ovarian) [µM]	TGI (LOX IMVI melanoma) [µM]	TGI (M14 melanoma) [µM]	TGI (MOLT-4 leukemia) [µM]	TGI (NCI-H226 lung) [µM]	TGI (NCI-H23 lung) [µM]	TGI (NCI-H460 lung) [µM]	TGI (OVCAR-3 ovarian) [µM]	TGI (OVCAR-4 ovarian) [µM]	TGI (RPMI-8226 leukemia) [µM]	TGI (RXF 393 renal) [µM]	TGI (SK-MEL-28 melanoma) [µM]	TGI (SK-MEL-5 melanoma) [µM]	TGI (SR leukemia) [µM]	TGI (T-47D breast) [µM]	TGI (UACC-257 melanoma) [µM]	TGI (UACC-62 melanoma) [µM]
Cc1cc2c(nn1)CCc1c-2no[n+]1[O-]	> 100	> 100	> 100	> 100	> 100	> 100	> 100	> 100	> 100	> 100	> 100	> 100	> 100	> 100	> 100	> 100	> 100	> 100	> 100
COC(=O)[C@@H](NC(=O)[C@H](N)Cc1ccc(N(CCCl)CCCl)cc1)C(C)C	> 64.4	> 90.8	45.1	37.9	49.5	0.234	59.2	16.8	26.3	> 72.8	36.7	34	55.5	40.4	10.8	> 38.6	35.5	25	13.4
CC(=O)c1c2c(cc3c1CC1(Cc4cc5c(cc4C1)C(=O)CCC5)C3)CCCC2 (centres undefined)	21.7	> 87.2	> 30.8	> 53.5	> 100	7.96	41.8	> 100	67.2	54.3	> 100	13.2	> 25.7	69.8	7.38	5.53	> 81.7	15.4	> 39.2
CSC1(C(=O)O)C2CCC3C2CCC31 (centres undefined)	> 100	> 100	> 100	> 100	> 100	> 100	> 100	> 100	> 100	> 100	> 100	> 100	> 100	> 100	> 100	> 100	> 100	> 100	> 100
CCOC(=O)c1csc(C(CSCc2ccc(OC)cc2)N2C(=O)c3ccccc3C2=O)n1 (centres undefined)	> 100	> 100	> 100	> 100	> 100	> 100	> 100	> 100	> 100	> 100	> 100	> 100	> 100	> 100	> 100	> 100	> 100	> 100	> 100
O=C(Cn1c(C(=O)/C=C/c2ccc(Cl)cc2)nc2ccccc21)c1ccc(Cl)cc1	36.1	64.5	71.7	36.5	43.6	14.5	64.4	77.6	28.9	22.9	50.7	49.7	32.6	62.6	29.3	22.9	> 100	68.2	33.7
Cc1cccc(Nc2nc3ccccc3nc2NS(=O)(=O)c2ccccc2)c1	30.7	> 100	> 100	> 100	> 100	61.6	> 100	93.1	51.4	80	19.7	> 100	> 100	> 100	> 100	> 100	> 100	> 100	> 100
Cc1c(NC(=O)CSC(=S)N(C)C)c(=O)n(-c2ccccc2)n1C	> 100	> 100	> 100	> 100	> 100	> 100	> 100	> 100	> 100	> 100	> 100	> 100	> 100	> 100	> 100	> 100	> 100	> 100	–
Cc1ccc2c(c1)C=CC1(O2)N(c2ccccc2)C(=S)OC1(C)C (centres undefined)	> 100	> 100	> 100	> 100	> 100	> 100	> 100	> 100	> 100	> 100	> 100	> 100	> 100	> 100	> 100	78.9	20.7	> 100	> 100
CO[C@@H]1C[C@H]2[C@@H]3CC[C@H]([C@H](C)COC(C)=O)[C@@]3(C)CC[C@@H]2[C@@]2(C)CC[C@H]3C[C@]312	> 100	> 100	> 100	> 100	> 100	> 100	> 100	> 100	> 100	> 100	> 100	> 100	> 100	> 100	> 100	> 100	> 100	> 100	–
CC(=O)N1C(CCc2ccccc2)CC(C)(C=O)C1Cc1ccc(O[Si](C(C)C)(C(C)C)C(C)C)cc1 (centres undefined)	7.03	15.8	19.1	3.85	4.49	> 21.5	19.9	24.3	9.05	11.8	16.8	5.03	5.81	18.7	7.64	> 21.7	12.9	10.6	16.3
CC(C)[C@@H]1CC[C@@H](C)C[C@H]1OC(=O)/C=C1\C(C(=O)O[C@@H]2C[C@H](C)CC[C@H]2C(C)C)[C@H]2C=C[C@@H]1O2 (some centres undefined)	> 100	> 100	> 100	> 100	> 100	> 100	> 100	> 100	> 100	> 100	> 100	> 100	> 100	> 100	> 100	> 100	> 100	> 100	> 100
CCO[C@@]12CCC3CC4CC[C@@](OCC)(O1)C4C32 (some centres undefined)	> 100	> 100	> 100	> 100	> 100	> 100	> 100	> 100	> 100	> 100	> 100	> 100	> 100	> 100	> 100	> 100	> 100	> 100	> 100
N#Cc1c(N)nc(SCc2ccccc2)c(C#N)c1-c1ccc(O)cc1	37.8	26.3	29.9	43	29.2	23.1	48.2	33.2	> 65.8	33.4	30.4	29.8	45.1	33	27.1	34.7	23.4	> 52.4	39.8
COc1ccc2nc3n(c2c1)C(c1c(F)cccc1F)SC3 (centres undefined)	> 100	55	> 100	> 100	> 100	> 100	66.2	> 100	> 100	> 100	> 100	> 100	> 100	> 100	> 100	> 100	> 100	> 100	> 100
Nc1n[nH]c2c(C(=O)Nc3ccc(Cl)cc3)c(N)n(N)c(=O)c12	> 100	> 100	> 100	> 100	> 100	> 100	> 100	> 100	> 100	> 100	> 100	> 100	> 100	> 100	> 100	> 100	> 100	> 100	> 100
O=C1N/C(=N\N=C\c2ccccc2)C2(CCCCC2)O1	> 100	> 100	> 100	> 100	> 100	> 100	> 100	> 100	> 100	> 100	> 100	> 100	> 100	> 100	> 100	76.4	> 100	> 100	> 100
O=[N+]([O-])C(C(Cl)=C(Cl)Cl)=C(n1nnc2ccccc21)n1nnc2ccccc21	51.9	> 74.6	60.4	> 66.3	50.8	26.2	> 73.9	> 75.5	> 68.8	62.4	66.3	56.4	50	64.9	> 67.8	17.4	> 80.6	> 68.1	> 58.2
O=c1[nH]nc(-c2ccccc2)n1-c1cccc([N+](=O)[O-])c1	> 100	> 100	> 100	> 100	> 100	> 100	> 100	> 100	> 100	> 100	> 100	> 100	> 100	> 100	> 100	> 100	> 100	> 100	> 100
COc1cccc(/C=C2\SC(=S)N(/C=C3\C(=O)Oc4ccccc4C3=O)C2=O)c1O	> 100	> 100	> 100	> 100	> 100	> 100	> 100	> 100	> 100	95.7	> 100	80.3	> 100	> 100	> 100	> 100	> 100	> 100	> 100
O=CC(O)C(O)C1OC(=O)c2cc(O)c(O)c(O)c2C2=C(O)C(O)=C3OC(=O)c4c(c(O)c(O)c5c4C3C2C(=O)O5)-c2c(cc(O)c(O)c2O)C(=O)OCC1O (centres undefined)	> 100	> 100	> 100	31.9	> 100	63.3	> 100	> 100	> 100	57	51.5	> 100	> 100	> 100	> 100	63	> 100	> 100	> 100
CC(NP(=O)(c1ccccc1)c1ccccc1)c1ccccc1 (centres undefined)	> 100	> 100	> 100	> 100	> 100	> 100	> 100	> 100	> 100	> 100	> 100	> 100	> 100	> 100	> 100	> 100	> 100	> 100	> 100
COc1ccc2c(C)cc(N/N=C/c3ccc(C)s3)nc2c1	9.24	32.2	37.9	11.1	23.2	36.9	51.7	> 48.8	20	8.88	> 63.9	> 35.7	33.8	> 100	16	31	26	> 52.9	> 54.6
CC1CC(=NC2CCCCC2)Nc2ccccc2N1Cc1ccccc1 (centres undefined)	17	21	8.61	6.85	4.46	30	27.8	22.3	14.5	20.4	20.2	> 32.7	10.5	17.7	6.77	> 100	20.7	13.2	3.69
